Data: PubChem BioAssay (NCI)
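How tested: cells in 96-well plates exposed to compound for 48 hours at five concentrations. TGI: concentration producing complete growth inhibition.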

Key:
Assay in all cases: NCI anticancer screen, dose series, 48 h
BT-549 breast = tested on: BT-549 breast
HCT-116 colon = tested on: HCT-116 colon
IGROV1 ovarian = tested on: IGROV1 ovarian
KM12 colon = tested on: KM12 colon
M14 melanoma = tested on: M14 melanoma
NCI-H23 lung = tested on: NCI-H23 lung
RXF 393 renal = tested on: RXF 393 renal
SK-MEL-2 melanoma = tested on: SK-MEL-2 melanoma
T-47D breast = tested on: T-47D breast
UACC-257 melanoma = tested on: UACC-257 melanoma
UO-31 renal = tested on: UO-31 renal
LOX IMVI melanoma = tested on: LOX IMVI melanoma
SK-MEL-28 melanoma = tested on: SK-MEL-28 melanoma

| SMILES | TGI (BT-549 breast) [µM] | TGI (HCT-116 colon) [µM] | TGI (IGROV1 ovarian) [µM] | TGI (KM12 colon) [µM] | TGI (M14 melanoma) [µM] | TGI (NCI-H23 lung) [µM] | TGI (RXF 393 renal) [µM] | TGI (SK-MEL-2 melanoma) [µM] | TGI (T-47D breast) [µM] | TGI (UACC-257 melanoma) [µM] | TGI (UO-31 renal) [µM] | TGI (LOX IMVI melanoma) [µM] | TGI (SK-MEL-28 melanoma) [µM] |
| --- | --- | --- | --- | --- | --- | --- | --- | --- | --- | --- | --- | --- | --- |
| Cc1cc(N(CCC#N)CCC#N)ccc1/C(N=Nc1ccc([N+](=O)[O-])cc1)=N\NC(=O)c1cc(Cl)ccc1O | > 100 | 88.1 | > 100 | > 100 | > 100 | 39.1 | > 100 | > 100 | 97.9 | > 100 | 56.8 | – | – |
| Cc1ccc(S(=O)(=O)n2cc(C=O)c(-c3cn(S(=O)(=O)c4ccc(C)cc4)cc3-c3cn(S(=O)(=O)c4ccc(C)cc4)cc3C=O)c2)cc1 | > 100 | > 100 | > 100 | > 100 | > 100 | > 100 | > 100 | > 100 | > 100 | > 100 | > 100 | 74.4 | – |
| C=C1C(C(=O)OC)[C@H]1C(=O)OC (some centres not stated) | > 100 | > 100 | > 100 | > 100 | > 100 | > 100 | > 100 | > 100 | > 100 | > 100 | > 100 | > 100 | > 100 |
| CC(=O)Nc1nc(C)c(S(=O)(=O)NC(=O)NC2NC(=O)NC2=O)s1 (configuration not stated) | > 100 | > 100 | > 100 | > 100 | > 100 | > 100 | > 100 | > 100 | > 100 | > 100 | > 100 | > 100 | > 100 |
| C(=N\c1nc2cc3sc(/N=C/c4ccccc4)nc3cc2s1)/c1ccccc1 | > 100 | > 100 | > 100 | > 100 | > 100 | > 100 | > 100 | > 100 | > 100 | > 100 | > 100 | > 100 | > 100 |
| O=C(Cc1ccc2ccccc2c1)NCc1ccc(C(=O)NCCc2ccccc2)cc1 | > 100 | > 100 | > 100 | > 100 | > 100 | > 100 | > 100 | > 100 | > 100 | > 100 | > 100 | > 100 | > 100 |
| CN(O)C(=O)CCC(NC(=O)CCC(N)C(=O)O)C(=O)NCC(=O)O (configuration not stated) | > 100 | > 100 | > 100 | > 100 | > 100 | > 100 | > 100 | > 100 | > 100 | > 100 | > 100 | > 100 | > 100 |
| O=C(OC1=CCN(Br)C1=O)C1=C(O)C(=O)N(Br)C1 | 46 | 35.6 | > 100 | > 100 | > 100 | > 100 | 38.5 | > 100 | 45.2 | 87.6 | > 100 | 54 | 41.4 |
| O=C(Nc1ccccc1)N(CCN(Cc1ccccc1)C(=O)Nc1ccccc1)CCN(Nc1ccccc1)C(=O)Nc1ccccc1 | > 100 | > 100 | > 100 | > 100 | > 100 | > 100 | > 100 | > 100 | > 100 | > 100 | > 100 | > 100 | > 100 |
| C=C1C2CCC3C4(C)CCCC(C)(C(=O)O)C4CCC3(C2)C1OC(=O)/C(C)=C/C (configuration not stated) | > 100 | > 100 | > 100 | 35.1 | 45.1 | > 100 | 34.2 | > 100 | > 100 | > 100 | 52.9 | > 100 | > 100 |
| COc1cc(C2C=C(c3ccccc3)Oc3cc4c(cc32)OCO4)cc(OC)c1OC (configuration not stated) | > 100 | 9.44 | > 100 | > 30.6 | > 100 | > 27 | > 100 | > 81.1 | > 100 | > 100 | > 100 | > 54.8 | > 100 |
| C[C@H](Nc1nc(N)c(N=O)c(=O)n1C)C(=O)O | > 10 | > 10 | > 10 | > 10 | > 10 | > 10 | > 10 | > 10 | > 10 | > 10 | – | > 10 | > 10 |
| CCOC(=O)CNC(=O)C(CCC(=O)N(C)O)NC(=O)CCC(N)C(=O)O (configuration not stated) | > 100 | > 100 | > 100 | > 100 | > 100 | > 100 | > 100 | > 100 | > 100 | > 100 | > 100 | > 100 | > 100 |
| CCOC(=O)c1c(N)sc2c1CC(C)CC2 (configuration not stated) | > 100 | > 100 | > 100 | > 100 | > 100 | > 100 | 44.9 | > 100 | > 100 | 97.3 | > 100 | > 100 | > 100 |
| COC(=O)C(Cc1c[nH]c2ccccc12)NC(=O)C(Cc1cnc[nH]1)NC(=O)C1CCC(=O)N1C(=O)OCc1ccccc1 (configuration not stated) | > 100 | > 100 | > 100 | > 100 | > 100 | > 100 | > 100 | > 100 | > 100 | > 100 | > 100 | – | > 100 |
| O=c1onc2n1-c1ccc(Cl)cc1C(=S)N1CSCC21 (configuration not stated) | 67.4 | 95.7 | > 100 | 59.6 | 28.8 | – | 89.2 | 69.6 | > 100 | > 100 | > 100 | > 100 | > 100 |
| O=c1[nH]c(NCc2cccnc2)nc2nc[nH]c12 | > 100 | > 100 | > 100 | > 100 | > 100 | > 100 | > 100 | > 100 | > 100 | > 100 | > 100 | > 100 | – |
| COc1ccc(/C=C2\N=C(N3CCCC(CO)C3)NC2=O)cc1 (configuration not stated) | > 100 | > 100 | > 100 | > 100 | > 100 | > 100 | > 100 | > 100 | > 100 | > 100 | > 100 | > 100 | > 100 |

| SMILES | TGI (BT-549 breast) [µM] | TGI (HCT-116 colon) [µM] | TGI (IGROV1 ovarian) [µM] | TGI (KM12 colon) [µM] | TGI (M14 melanoma) [µM] | TGI (NCI-H23 lung) [µM] | TGI (RXF 393 renal) [µM] | TGI (SK-MEL-2 melanoma) [µM] | TGI (T-47D breast) [µM] | TGI (UACC-257 melanoma) [µM] | TGI (UO-31 renal) [µM] | TGI (LOX IMVI melanoma) [µM] | TGI (SK-MEL-28 melanoma) [µM] |
| --- | --- | --- | --- | --- | --- | --- | --- | --- | --- | --- | --- | --- | --- |
| O=[N+]([O-])c1ncc(N(CCO)CCO)s1 | 80.6 | > 100 | – | > 100 | > 100 | > 100 | 33.4 | 45.3 | 81.8 | 71.4 | > 100 | 31.9 | 33.2 |
| Cc1ccc2nc3ccccc3c(C3C4C(=O)N(c5ccc(F)cc5)C(=O)C4ON3C(C(N)=O)c3ccccc3)c2c1 (configuration not stated) | > 100 | > 100 | > 100 | > 100 | > 100 | > 100 | > 100 | > 100 | > 100 | > 100 | > 100 | > 100 | > 100 |
| CCOP(=O)(OCC)Oc1c(OC)c2[nH]c(C(=O)OC)cc2c2c(C(=O)O)c[nH]c12 | > 100 | > 100 | > 100 | 81.3 | > 100 | > 100 | > 100 | > 100 | > 100 | > 100 | > 100 | > 100 | > 100 |
| CC(C)(C)c1cc(/C=C(\C#N)C2=NCCO2)cc(C(C)(C)C)c1O | 12.4 | 11.9 | 21.9 | 15.6 | 17 | 13.4 | 14.7 | 8.55 | 9.13 | 7.89 | 9.27 | 18.8 | 29 |
| O=[N+]([O-])c1ccc(-c2csc(N=Nc3c(O)[nH]c4ccccc34)n2)cc1 | 42.8 | > 100 | 57.9 | > 100 | 36.4 | > 100 | – | 84.2 | > 100 | > 100 | 39.2 | > 100 | > 100 |
| COC(=O)C(CNC(=O)/C=C/c1ccc(OC)c(OC)c1)NC(=O)/C=C/c1ccc(OC)c(OC)c1 (configuration not stated) | > 100 | > 100 | > 100 | > 100 | > 100 | > 100 | > 100 | > 100 | > 100 | > 100 | > 100 | > 100 | > 100 |
| CCCCSC1=N/C(=C\c2ccccc2O)C(=O)N1 | > 100 | > 100 | > 100 | > 100 | > 100 | > 100 | > 100 | > 100 | > 100 | > 100 | > 100 | > 100 | > 100 |
| C#CC1(O)CCC2[C@@H]3CCc4cc(Oc5nc(F)nc(-c6c(C)c(C(=O)OCC)n7ccccc67)n5)ccc4C3CC[C@@]21C (some centres not stated) | > 100 | > 100 | > 100 | > 100 | > 100 | > 100 | > 100 | > 100 | > 100 | > 100 | > 100 | > 100 | > 100 |
| COc1ccc(C2SCC(=O)N2c2ccc(-n3c(-c4ccccc4)nc4ccccc4c3=O)cc2)cc1 (configuration not stated) | > 100 | > 100 | > 100 | > 100 | > 100 | > 100 | – | > 100 | > 100 | > 100 | > 100 | > 100 | > 100 |
| Cc1nc(-c2ccccc2)cn2c1nc1ccccc12 | 38.9 | > 70.9 | 57.1 | > 70.3 | > 82.8 | > 77.7 | 55.5 | 43.5 | > 24.9 | > 82.3 | 46.5 | > 31.6 | 72.8 |
| Cn1c(-c2ccc(C=O)o2)ccc1-c1ccc(C=O)o1 | > 100 | 36.7 | > 100 | > 100 | > 100 | > 100 | > 100 | > 100 | > 100 | > 100 | > 100 | > 100 | > 100 |
| NC1=Nc2ccccc2Sc2nncn21 | > 100 | > 100 | > 100 | > 100 | > 100 | > 100 | > 100 | > 100 | > 100 | > 100 | > 100 | > 100 | > 100 |
| Cc1nc2c(c(N3CCN(C)CC3)n1)Cc1ccccc1-2 | > 100 | > 100 | – | > 100 | > 100 | > 100 | > 100 | > 100 | > 100 | > 100 | 62.8 | – | – |
| CO/C=C(/C(=O)OC)[C@@H]1C[C@@H]1c1ccc2ccccc2c1 | 50.5 | 44.1 | 70.7 | 54.6 | 71.9 | > 100 | > 100 | 35.1 | 78.5 | 71.9 | > 100 | – | 81.4 |
| Nn1c(CCCCCCCCc2nnc(-c3c(O)ccc4ccccc34)n2N)nnc1-c1c(O)ccc2ccccc12 | > 100 | > 100 | > 100 | > 100 | > 100 | > 100 | – | > 100 | > 100 | > 100 | > 100 | > 100 | > 100 |
| COc1c2c(c3c(c1OC)c(=O)c1ccccc1n3C)OCO2 | > 100 | > 100 | > 100 | > 100 | > 100 | > 100 | – | > 100 | > 100 | > 100 | > 100 | > 100 | > 100 |
| COC(=O)C1CCC(=O)N1C(c1ccc(OC)cc1)c1cc(OC)c(OC)c(OC)c1 (configuration not stated) | > 100 | – | – | 1.12 | 21.6 | > 100 | 0.361 | > 100 | > 100 | > 100 | > 100 | > 36.9 | > 100 |
